From patent publication US11649222B2, “Compounds” (UNIVERSITETET I OSLO, priority 2016, dated 2023)
Like-named read-outs stand apart in the source and are kept apart here.

Tests used:
Format in all cases: cell-based
[1] = tested on: Klebsiella pneumoniae harboring NDM-1; assay: Time-kill study with meropenem
Description: Mueller-Hinton broth (MHB) was warmed from fridge temperature cold. […] A sample of Example 26 was dissolved in DMSO.
The 96-well plates were prepared using a multi-channel pipette, adding […] PBS to columns 2-9, or the required number of dilutions needed in the experiment. Each Inoculum was prepared by picking a single colony from the fresh plate that was disperged into 1 mL MHB, the loop was agitated to ensure all the colony comes off the loop. The tube was Vortex mixed, and a 100 μL aliquot was taken from the tube into 9.9 mL of MHB into the media bottle. […] The procedure was repeated for as many samples needed in the study. Aliquots of 5 mL inoculum were transferred to as many media bottles as needed, e.g. 4 mg/L MEM, 4 mg/L MEM+50 μM test substance, 4 mg/L MEM+100 μM test substance. Then […] aliquots were taken from each culture and added to Column 1 on the 96 well plate, e.g. culture 1: 50 μl into A1, […] into B1 etc. for time point 0 h. Then […] MEM was added into each bottle, followed by the required amount of test substance. The bottles were mixed gently to avoid formation of bubbles, and incubated in a secondary container at 37° C. at 180 rpm. Finally, serial dilutions were performed using multi-channel pipette taking 30 μL for column 1, adding to column 2, mixing well, repeating from column 2 to 3 with clean pipette tips.

[2] = tested on: human hepG2 cells; assay: In vitro toxicity in human hepG2 cells (AlamarBlue viability); conditions: for IC50: human hepG2 cells
How it was run: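 HepG2 cells at 20,000/well adhered overnight, then were exposed to compounds at 1 to 1×10^−6 mM (DMSO ≤1%) for 24 h at 37 °C. Viability was read with AlamarBlue (10% final) after a further 4 h at 37 °C.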

[3] = tested on: K. pneumonia 50923744 (VIM); assay: Checkerboard MIC, Example 26 and meropenem; conditions: for MIC: Klebsiella pneumoniae
Description: (§1) A checkerboard MIC assay was using the broth dilution method according to CLSI guidelines. […] Dilutions to 4 mg/ml was performed by adding+4.75 ml sterile saline to 0.25 ml of the stock solution, and dilutions to 512 μg/ml was performed by adding 10.9 ml MH-broth to the 4 mg/ml solution. Inoculums of bacterial strains as described in Table 4 were prepared by suspending fresh overnight colonies from 5% horse blood agar were to a turbidity of 0.5 McFarland and further diluted to 1×10^6 CFU/ml in MH-broth. Aliquots of 50 μl of MH-broth were added to each well of polystyrene microtiter plates. […] The plates were incubated at 35° C., 16-20 hours.

[4] = tested on: E. coli AMA1563 (NDM-5); assay: Checkerboard MIC, Example 26 and meropenem; conditions: for MIC: Escherichia coli
Description: as §1

[5] = tested on: K. pneumonia 50877064 (NDM-1); assay: Checkerboard MIC, Example 26 and meropenem; conditions: for MIC: Klebsiella pneumoniae
Description: as §1

[6] = tested on: E. coli 50676002 (NDM-1); assay: Checkerboard MIC, Example 26 and meropenem; conditions: for MIC: Escherichia coli
Description: as §1

[7] = tested on: K. pneumonia K66-45 (NDM-1); assay: Checkerboard MIC, Example 26 and meropenem; conditions: for MIC: Klebsiella pneumoniae
Description: as §1

[8] = tested on: K. pneumonia 50690310 (NDM-1); assay: Checkerboard MIC, Example 26 and meropenem; conditions: for MIC: Klebsiella pneumoniae
Description: as §1

[9] = tested on: K. pneumonia K46-62 (VIM-1); assay: Checkerboard MIC, Example 26 and meropenem; conditions: for MIC: Klebsiella pneumoniae
Description: as §1

[10] = tested on: E. coli AMA817 (NDM-1); assay: Checkerboard MIC, Example 26 and meropenem; conditions: for MIC: Escherichia coli
Description: as §1

[11] = tested on: K. pneumonia 50627996 (NDM-1); assay: Checkerboard MIC, Example 26 and meropenem; conditions: for MIC: Klebsiella pneumoniae
Description: as §1

[12] = tested on: K. pneumoniae K66-45
Description: After plating and grown overnight at 37° C., only single colonies, ignoring any touching the edges of the plate, were counted.
10^9 CFU K66-45 (Mueller-Hinton broth, no selection) was plated and grown overnight, 37° C. Only single colonies, ignoring any touching the edges of the plate, were counted.

[13] = tested on: E. coli (NDM); assay: Microbroth dilution MIC of meropenem ± 25 mg/L inhibitor; conditions: E. coli NDM (several strains)
[14] = tested on: K. pneumoniae (NDM); assay: as above; conditions: K. pneumoniae NDM (several strains)
[15] = read-out: MIC alone, Example 26

SMILES: CN(C[C@H](O)[C@@H](O)[C@H](O)[C@H](O)CO)C(=O)c1ccc(CN(Cc2ccccn2)Cc2ccccn2)nc1 [Example 26, 6-((bis(pyridin-2-ylmethyl)amino)methyl)-N-methyl-N-((2S,3R,4R,5R)-2,3,4,5,6-pentahydroxyhexyl)nicotinamide]
- time after which CFU drops to below the limit of detection (LOD) ([1]; Example 26 + 4 mg/L meropenem, irrespective of the concentration of Example 26): 5 to 10 h
- period CFU stays below LOD ([1]; Example 26 + 4 mg/L meropenem, period of the study): ≥ 30 h
- EC50 in hepG2 cells ([2]; hepG2 cells): non-toxic
- IC50 ([2]; 24 hours, AlamarBlue, 8 replicates, read-out: IC50): > 1000 µM
- IC50 ([2]; read-out: IC50h): ≥ 116 µM
- MIC [3, 15]: > 400 µg/mL
- MIC in combination, Example 26 ([3]; with meropenem): 12.5 µg/mL
- MIC [4, 15]: > 400 µg/mL
- MIC in combination, Example 26 ([4]; with meropenem): 25 µg/mL
- MIC [5, 15]: > 400 µg/mL
- MIC in combination, Example 26 ([5]; with meropenem): 12.5 µg/mL
- MIC [6, 15]: > 400 µg/mL
- MIC in combination, Example 26 ([6]; with meropenem): 12.5 µg/mL
- MIC [7, 15]: > 400 µg/mL
- MIC in combination, Example 26 ([7]; with meropenem): 12.5 µg/mL
- MIC [8, 15]: > 400 µg/mL
- MIC in combination, Example 26 ([8]; with meropenem): 12.5 µg/mL
- MIC [9, 15]: > 400 µg/mL
- MIC in combination, Example 26 ([9]; with meropenem): 12.5 µg/mL
- MIC [10, 15]: > 400 µg/mL
- MIC in combination, Example 26 ([10]; with meropenem): 12.5 µg/mL
- MIC [11, 15]: > 400 µg/mL
- MIC in combination, Example 26 ([11]; with meropenem): 12.5 µg/mL
- Resistance/mutant frequency (number of colonies) ([12]; Example 26 15 mg/L, 8 mg/L MEM): n.c.
- Resistance/mutant frequency (number of colonies) ([12]; Example 26 25 mg/L, 4 mg/L MEM): n.c.
- Resistance/mutant frequency (number of colonies) ([12]; Example 26 25 mg/L, 8 mg/L MEM): n.c.
- Resistance/mutant frequency (number of colonies) ([12]; Example 26 50 mg/L, 4 mg/L MEM): n.c.
- Resistance/mutant frequency (number of colonies) ([12]; Example 26 50 mg/L, 8 mg/L MEM): n.c.
- MIC meropenem + 25 mg/L Example 26 [13]: 0.125 µg/mL
- MIC meropenem + 25 mg/L Example 26 [14]: 0.06 µg/mL

SMILES: C[C@@H](O)[C@H]1C(=O)N2C(C(=O)O)=C(S[C@@H]3CN[C@H](C(=O)N(C)C)C3)[C@H](C)[C@H]12 [meropenem, reference compound]
- time after which CFU starts to increase ([1]; 4 mg/L meropenem alone): about 5 hours
- MIC ([3]; read-out: MIC alone, Meropenem): 2 µg/mL
- MIC in combination, Meropenem ([3]; with Example 26): ≤0.0625 µg/mL
- MIC ([4]; read-out: MIC alone, Meropenem): 64 µg/mL
- MIC in combination, Meropenem ([4]; with Example 26): ≤0.0625 µg/mL
- MIC ([5]; read-out: MIC alone, Meropenem): 64 µg/mL
- MIC in combination, Meropenem ([5]; with Example 26): ≤0.0625 µg/mL
- MIC ([6]; read-out: MIC alone, Meropenem): 32 µg/mL
- MIC in combination, Meropenem ([6]; with Example 26): ≤0.0625 µg/mL
- MIC ([7]; read-out: MIC alone, Meropenem): 64 µg/mL
- MIC in combination, Meropenem ([7]; with Example 26): ≤0.0625 µg/mL
- MIC ([8]; read-out: MIC alone, Meropenem): 16 µg/mL
- MIC in combination, Meropenem ([8]; with Example 26): ≤0.0625 µg/mL
- MIC ([9]; read-out: MIC alone, Meropenem): 32 µg/mL
- MIC in combination, Meropenem ([9]; with Example 26): ≤0.0625 µg/mL
- MIC ([10]; read-out: MIC alone, Meropenem): 32 µg/mL
- MIC in combination, Meropenem ([10]; with Example 26): ≤0.0625 µg/mL
- MIC ([11]; read-out: MIC alone, Meropenem): 64 µg/mL
- MIC in combination, Meropenem ([11]; with Example 26): 0.125 µg/mL
